Test results reported in ChEMBL document CHEMBL4041521, “3-Aroylindoles display antitumor activity in vitro and in vivo: Effects of N1-substituents on biological activity” (Eur J Med Chem, 2017).
Calls of active or inactive are those of the source. No cut-off for these calls is given here.

Columns and labels:
Histone deacetylase 3 = Histone deacetylase 3 (Homo sapiens, UniProt O15379); experiment: Inhibition of recombinant human HDAC3 using fluorogenic substrate by fluorescence assay
Sus scrofa = organism: Sus scrofa; experiment: Inhibition of purified porcine tubulin polymerization at 1 to 10 uM measured every 1 min for 30 mins
Histone deacetylase 1 = Histone deacetylase 1 (Homo sapiens, UniProt Q13547); experiment: Inhibition of recombinant human HDAC1 using fluorogenic substrate by fluorescence assay
Sequence of Histone deacetylase 1 (Q13547 whole entry): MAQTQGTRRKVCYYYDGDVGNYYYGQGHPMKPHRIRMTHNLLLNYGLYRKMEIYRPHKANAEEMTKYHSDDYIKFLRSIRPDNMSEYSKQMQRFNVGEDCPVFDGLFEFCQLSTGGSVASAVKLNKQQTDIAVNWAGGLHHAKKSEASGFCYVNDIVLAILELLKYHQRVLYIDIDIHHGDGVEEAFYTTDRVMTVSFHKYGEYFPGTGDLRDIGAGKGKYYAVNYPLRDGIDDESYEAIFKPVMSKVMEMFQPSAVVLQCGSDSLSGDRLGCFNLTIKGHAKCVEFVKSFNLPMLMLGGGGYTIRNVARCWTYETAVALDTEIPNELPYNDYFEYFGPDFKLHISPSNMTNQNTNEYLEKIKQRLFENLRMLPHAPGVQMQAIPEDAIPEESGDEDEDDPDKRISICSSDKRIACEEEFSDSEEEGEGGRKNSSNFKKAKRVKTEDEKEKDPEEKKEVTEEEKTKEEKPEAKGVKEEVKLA

[1] = target: T1, Polyamine deacetylase HDAC10 (Homo sapiens, UniProt Q969S8); experiment: Inhibition of recombinant human HDAC10 using fluorogenic substrate by fluorescence assay
T1 sequence (Q969S8 whole entry): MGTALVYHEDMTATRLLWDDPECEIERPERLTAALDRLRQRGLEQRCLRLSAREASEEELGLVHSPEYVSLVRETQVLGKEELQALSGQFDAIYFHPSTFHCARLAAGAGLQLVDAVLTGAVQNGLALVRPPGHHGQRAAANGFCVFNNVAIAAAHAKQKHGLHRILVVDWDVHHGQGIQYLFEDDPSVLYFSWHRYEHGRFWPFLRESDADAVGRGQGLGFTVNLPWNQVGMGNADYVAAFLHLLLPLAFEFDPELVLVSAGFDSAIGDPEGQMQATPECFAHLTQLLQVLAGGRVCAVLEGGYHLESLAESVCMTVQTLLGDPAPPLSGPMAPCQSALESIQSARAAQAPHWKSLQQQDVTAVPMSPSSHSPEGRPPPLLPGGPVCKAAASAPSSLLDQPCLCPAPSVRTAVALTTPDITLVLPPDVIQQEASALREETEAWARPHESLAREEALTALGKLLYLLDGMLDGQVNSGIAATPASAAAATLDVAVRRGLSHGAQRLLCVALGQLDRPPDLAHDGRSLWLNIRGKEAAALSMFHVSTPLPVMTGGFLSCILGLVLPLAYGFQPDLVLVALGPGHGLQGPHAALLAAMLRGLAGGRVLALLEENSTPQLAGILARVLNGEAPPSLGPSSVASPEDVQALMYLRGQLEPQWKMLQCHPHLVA

[2] = target: T2, Protein deacetylase HDAC6 (Homo sapiens, UniProt Q9UBN7); experiment: Inhibition of recombinant human HDAC6 using fluorogenic substrate by fluorescence assay
T2 sequence (Q9UBN7 whole entry): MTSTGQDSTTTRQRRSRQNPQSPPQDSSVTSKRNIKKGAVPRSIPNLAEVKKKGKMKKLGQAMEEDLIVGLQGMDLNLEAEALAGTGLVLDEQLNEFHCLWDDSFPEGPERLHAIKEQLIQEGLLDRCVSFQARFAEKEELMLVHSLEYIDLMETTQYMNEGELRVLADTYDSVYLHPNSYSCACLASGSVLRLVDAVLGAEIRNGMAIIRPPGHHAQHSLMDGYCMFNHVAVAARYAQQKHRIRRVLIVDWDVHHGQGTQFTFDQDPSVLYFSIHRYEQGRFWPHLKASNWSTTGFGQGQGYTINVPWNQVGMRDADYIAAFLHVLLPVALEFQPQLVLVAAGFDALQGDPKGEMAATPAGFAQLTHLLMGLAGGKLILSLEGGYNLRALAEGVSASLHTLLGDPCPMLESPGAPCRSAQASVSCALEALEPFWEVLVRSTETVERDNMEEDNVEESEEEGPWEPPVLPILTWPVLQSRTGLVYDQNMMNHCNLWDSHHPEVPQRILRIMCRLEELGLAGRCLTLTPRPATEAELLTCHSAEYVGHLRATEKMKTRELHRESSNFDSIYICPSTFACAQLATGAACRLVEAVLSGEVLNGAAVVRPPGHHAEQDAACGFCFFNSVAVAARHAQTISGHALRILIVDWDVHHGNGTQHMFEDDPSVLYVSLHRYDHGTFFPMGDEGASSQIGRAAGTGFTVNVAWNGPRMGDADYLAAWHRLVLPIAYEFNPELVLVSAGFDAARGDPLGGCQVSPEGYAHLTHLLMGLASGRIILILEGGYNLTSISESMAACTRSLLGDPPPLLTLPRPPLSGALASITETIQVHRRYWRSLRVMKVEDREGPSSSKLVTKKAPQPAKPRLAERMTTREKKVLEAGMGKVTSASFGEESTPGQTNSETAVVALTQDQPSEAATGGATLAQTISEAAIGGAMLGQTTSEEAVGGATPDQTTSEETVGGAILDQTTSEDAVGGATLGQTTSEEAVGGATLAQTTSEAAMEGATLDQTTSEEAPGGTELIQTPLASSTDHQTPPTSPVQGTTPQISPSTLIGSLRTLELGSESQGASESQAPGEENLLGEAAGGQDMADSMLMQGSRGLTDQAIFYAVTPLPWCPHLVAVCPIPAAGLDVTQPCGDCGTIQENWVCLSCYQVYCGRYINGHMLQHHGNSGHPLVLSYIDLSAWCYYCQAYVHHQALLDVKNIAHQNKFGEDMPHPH

Histone deacetylase 9 = Histone deacetylase 9 (Homo sapiens, UniProt Q9UKV0); experiment: Inhibition of recombinant human HDAC9 using fluorogenic substrate by fluorescence assay
Sequence of Histone deacetylase 9 (Q9UKV0 whole entry): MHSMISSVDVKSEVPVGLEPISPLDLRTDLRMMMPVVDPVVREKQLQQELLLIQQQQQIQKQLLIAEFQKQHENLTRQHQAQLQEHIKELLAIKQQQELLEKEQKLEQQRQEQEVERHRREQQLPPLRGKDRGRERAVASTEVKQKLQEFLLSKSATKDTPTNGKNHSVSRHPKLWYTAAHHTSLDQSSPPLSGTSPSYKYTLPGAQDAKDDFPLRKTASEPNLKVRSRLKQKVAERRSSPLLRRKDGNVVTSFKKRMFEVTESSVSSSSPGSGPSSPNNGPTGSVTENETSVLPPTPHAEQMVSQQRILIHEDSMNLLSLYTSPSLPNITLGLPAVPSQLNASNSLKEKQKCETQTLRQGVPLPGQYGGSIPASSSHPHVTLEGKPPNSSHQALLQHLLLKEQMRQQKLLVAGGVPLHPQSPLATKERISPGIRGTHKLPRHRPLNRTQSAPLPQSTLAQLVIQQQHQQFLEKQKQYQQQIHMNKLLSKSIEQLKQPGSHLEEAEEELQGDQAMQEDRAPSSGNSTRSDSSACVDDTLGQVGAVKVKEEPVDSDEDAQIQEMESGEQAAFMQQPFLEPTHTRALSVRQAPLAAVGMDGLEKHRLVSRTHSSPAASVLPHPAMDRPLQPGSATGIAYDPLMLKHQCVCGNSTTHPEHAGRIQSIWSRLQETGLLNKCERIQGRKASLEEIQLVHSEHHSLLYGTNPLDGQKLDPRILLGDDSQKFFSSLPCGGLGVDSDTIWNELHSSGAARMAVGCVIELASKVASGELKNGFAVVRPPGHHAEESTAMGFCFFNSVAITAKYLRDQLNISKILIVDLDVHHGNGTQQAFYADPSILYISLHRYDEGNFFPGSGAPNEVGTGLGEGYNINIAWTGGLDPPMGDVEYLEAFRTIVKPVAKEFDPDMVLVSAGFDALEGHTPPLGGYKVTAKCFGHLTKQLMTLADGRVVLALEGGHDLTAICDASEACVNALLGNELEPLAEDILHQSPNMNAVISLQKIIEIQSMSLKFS

Homo sapiens = organism: Homo sapiens; experiment: Inhibition of tubulin polymerization in human PC3 cells assessed as […] in MPM2 expression at 0.01 to 10 uM by Western blot analysis; type: cell-based
Histone deacetylase 11 = target: T3, Histone deacetylase 11 (Homo sapiens, UniProt Q96DB2); experiment: Inhibition of recombinant human HDAC11 using fluorogenic substrate by fluorescence assay
T3 sequence (Q96DB2 whole entry): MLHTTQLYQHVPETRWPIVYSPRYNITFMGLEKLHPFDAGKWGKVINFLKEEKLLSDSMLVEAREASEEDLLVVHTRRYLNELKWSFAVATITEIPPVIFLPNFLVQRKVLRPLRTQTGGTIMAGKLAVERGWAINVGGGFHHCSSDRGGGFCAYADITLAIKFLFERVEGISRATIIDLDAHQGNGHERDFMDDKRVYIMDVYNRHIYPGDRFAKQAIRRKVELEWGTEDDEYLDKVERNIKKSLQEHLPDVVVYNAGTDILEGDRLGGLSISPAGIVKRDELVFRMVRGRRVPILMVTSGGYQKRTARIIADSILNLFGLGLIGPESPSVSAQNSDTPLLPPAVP

PC-3 = experiment: Antiproliferative activity against human PC3 cells measured after 48 hrs by sulforhodamine-B assay; type: functional, cell-based; conditions: PC-3, 48 h
A549 = experiment: Antiproliferative activity against human A549 cells measured after 48 hrs by sulforhodamine-B assay; type: functional, cell-based; conditions: A549, 48 h
Histone deacetylase 2 = Histone deacetylase 2 (Homo sapiens, UniProt Q92769); experiment: Inhibition of recombinant human HDAC2 using fluorogenic substrate by fluorescence assay
Sequence of Histone deacetylase 2 (Q92769 whole entry): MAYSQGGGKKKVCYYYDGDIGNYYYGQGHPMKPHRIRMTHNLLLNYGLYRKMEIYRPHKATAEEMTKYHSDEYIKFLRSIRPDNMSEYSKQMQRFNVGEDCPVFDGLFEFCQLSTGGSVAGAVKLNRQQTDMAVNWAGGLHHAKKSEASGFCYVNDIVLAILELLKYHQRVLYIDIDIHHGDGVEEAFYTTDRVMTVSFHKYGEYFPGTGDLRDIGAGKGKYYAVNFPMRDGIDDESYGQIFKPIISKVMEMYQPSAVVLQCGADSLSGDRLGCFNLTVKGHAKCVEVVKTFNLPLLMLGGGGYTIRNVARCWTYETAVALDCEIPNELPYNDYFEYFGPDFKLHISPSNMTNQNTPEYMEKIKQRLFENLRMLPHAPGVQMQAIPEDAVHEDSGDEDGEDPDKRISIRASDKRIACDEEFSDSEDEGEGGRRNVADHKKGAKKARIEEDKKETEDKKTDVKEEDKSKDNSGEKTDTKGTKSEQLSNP

Histone deacetylase 5 = Histone deacetylase 5 (Homo sapiens, UniProt Q9UQL6); experiment: Inhibition of recombinant human HDAC5 using fluorogenic substrate by fluorescence assay
Sequence of Histone deacetylase 5 (Q9UQL6 whole entry): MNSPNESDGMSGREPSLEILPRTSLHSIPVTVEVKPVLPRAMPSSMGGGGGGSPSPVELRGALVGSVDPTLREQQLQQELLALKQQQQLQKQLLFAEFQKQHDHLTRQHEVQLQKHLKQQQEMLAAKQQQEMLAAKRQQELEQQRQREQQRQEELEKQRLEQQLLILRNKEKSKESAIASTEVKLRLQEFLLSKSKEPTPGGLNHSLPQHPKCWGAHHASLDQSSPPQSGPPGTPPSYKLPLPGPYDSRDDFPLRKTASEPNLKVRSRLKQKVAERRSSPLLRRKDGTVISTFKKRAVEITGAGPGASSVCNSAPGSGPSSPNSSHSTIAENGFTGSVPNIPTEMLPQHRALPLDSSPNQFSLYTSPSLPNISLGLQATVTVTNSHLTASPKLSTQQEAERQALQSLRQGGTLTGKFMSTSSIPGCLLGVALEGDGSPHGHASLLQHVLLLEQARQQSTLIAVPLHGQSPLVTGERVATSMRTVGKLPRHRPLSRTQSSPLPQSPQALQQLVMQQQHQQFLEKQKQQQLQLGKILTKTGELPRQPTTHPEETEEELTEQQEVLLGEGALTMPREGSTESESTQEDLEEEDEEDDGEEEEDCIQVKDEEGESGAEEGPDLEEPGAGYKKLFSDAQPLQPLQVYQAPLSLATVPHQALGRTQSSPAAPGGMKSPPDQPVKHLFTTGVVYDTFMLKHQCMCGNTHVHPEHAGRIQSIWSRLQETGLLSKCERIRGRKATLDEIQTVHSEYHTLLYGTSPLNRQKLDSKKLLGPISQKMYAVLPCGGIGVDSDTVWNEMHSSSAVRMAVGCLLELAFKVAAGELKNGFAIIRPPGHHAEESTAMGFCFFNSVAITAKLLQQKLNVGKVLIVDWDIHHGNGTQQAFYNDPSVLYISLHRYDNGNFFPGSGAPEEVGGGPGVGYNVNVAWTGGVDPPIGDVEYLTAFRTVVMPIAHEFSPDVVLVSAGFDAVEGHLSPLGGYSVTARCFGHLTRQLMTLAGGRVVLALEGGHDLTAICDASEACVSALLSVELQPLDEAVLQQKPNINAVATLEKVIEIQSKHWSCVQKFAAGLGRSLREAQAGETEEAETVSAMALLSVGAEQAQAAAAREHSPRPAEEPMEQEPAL

[3] = Inhibition of HDAC activity in human HeLa cell nuclear extract using fluorometric substrate measured after 30 mins by fluorescence assay; type: cell-based

Sequence of Histone deacetylase 3 (O15379 whole entry): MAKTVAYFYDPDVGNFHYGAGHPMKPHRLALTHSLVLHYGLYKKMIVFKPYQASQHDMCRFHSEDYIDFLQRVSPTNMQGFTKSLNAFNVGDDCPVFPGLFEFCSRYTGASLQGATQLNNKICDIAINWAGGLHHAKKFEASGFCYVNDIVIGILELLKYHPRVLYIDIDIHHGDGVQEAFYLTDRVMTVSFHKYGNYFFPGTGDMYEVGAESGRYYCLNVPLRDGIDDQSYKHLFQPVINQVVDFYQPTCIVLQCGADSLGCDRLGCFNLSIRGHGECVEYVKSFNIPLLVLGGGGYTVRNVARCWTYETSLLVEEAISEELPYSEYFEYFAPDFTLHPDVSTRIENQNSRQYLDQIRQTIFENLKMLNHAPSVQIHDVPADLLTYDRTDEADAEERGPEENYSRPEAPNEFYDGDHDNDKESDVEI

SMILES | IC50 (Histone deacetylase 3; read-out: IC50) [nM] | inhibition (Sus scrofa) | IC50 (Histone deacetylase 1) [nM] | IC50 ([1]; read-out: IC50) [nM] | IC50 [2] [nM] | IC50 (Histone deacetylase 9; read-out: IC50) [nM] | inhibition (Homo sapiens) | IC50 (Histone deacetylase 11) [nM] | IC50 (PC-3) [nM] | IC50 (A549) [nM] | IC50 (Histone deacetylase 2) [nM] | IC50 (Histone deacetylase 5) [nM] | IC50 [3] [nM] | IC50 (Histone deacetylase 3) | IC50 [1] | IC50 (Histone deacetylase 9)
COc1ccc2c(C(=O)c3cc(OC)c(OC)c(OC)c3)cn(Cc3ccc(C(=O)NO)cc3)c2c1 | 6530 | Active | 573 | 8230 | 64.5 | 1680 | Active | 651 | 179 | 206 | 1410 | 1030 | 611 | – | – | –
COc1ccc2c(C(=O)c3cc(OC)c(OC)c(OC)c3)cn(S(=O)(=O)c3cccc(/C=C/C(=O)NO)c3)c2c1 | – | Active | 468 | – | 275 | – | Active | 8870 | 33.1 | 72.5 | 3220 | 356000 | 135 | Not Active | Not Active | Not Active
